Results reported in patent publication US10408843B2, “Compositions and methods for detecting S-nitrosylation and S-sulfinylation” (The Regents of the University of Michigan, priority 2013, dated 2019).

What was measured:
[1] = tested on: 293T cell lysates; test: SILAC quantitative mass spectrometry of biotin-SO2H enrichment; format: biochemical, human; details: quantified in ≥3 replicates, ≥3 quantified peptides; 400 μM probe
Description: FIG. 16. Quantitative analysis of biotin-SO2H enrichment in 293T cell lysates. Samples were prepared in two sets, one with biotin-SO2H in the “Light” matched with biotin-SO3H in the “Heavy” (N=2), and the other in reverse (N=2). Each was ran as two technical replicated and SILAC ratios (biotin-SO2H/biotin-SO3H) were combined across experiments. “Directions Detected” describes the set of SILAC samples where the protein was quantified. FORWARD refers to biotin-SO2H (light)/biotin-SO3H (heavy), and REVERSE is the opposite direction, biotin-SO2H (heavy)/biotin-SO3H (light). […] Label-free quantification was performed using the Top3 method from the biotin-SO2H labeled pair.
Next, biotin-SO2H labeling was combined with stable-isotope labeling with amino acids in cell culture (SILAC) for quantitative mass spectrometry annotation of endogenous S-sulfinylation in mammalian cells. […] Peptides were analyzed using data-independent acquisition methods in combination with ion mobility separation (HDMS^E) and mobility-dependent collision energy assignment for enhanced fragmentation (see, e.g., Distler, U. et al. Nat Methods (2013)). Through a combination of 4 biological replicates, each with 2 technical replicates, a total of 992 proteins were identified with SILAC ratios >5 (biotin-SO2H/biotin-SO3H), quantified in ≥3 replicates, and represented by ≥3 quantified peptides (FIG. 16). […]

[2] = tested on: S-nitrosylated proteins in mammalian cell lysates; test: Gel-based labeling of endogenous S-nitrosylated proteins in cell lysates; format: biochemical, human; details: lysates denatured, alkylated with iodoacetamide; streptavidin detection
Description: FIG. 8. Dose-dependent labeling of S-nitrosylated proteins by biotin-SO2H. 293T and PANC1 cells were lysed in 6 M urea/PBS and alkylated with 50 mM iodoacetamide for 30 minutes, followed by incubation with increasing concentrations of biotin-SO2H for 45 minutes.
Next, the reactivity of sulfinic acids with native S-nitrosylated proteins was examined. Biotin and fluorescein N-hydroxysuccinimide (NHS) esters were directly coupled to the biological sulfinic acid metabolite hypotaurine (biotin-SO2H) or the sulfonic acid metabolite taurine (biotin-SO3H). Each probe was incubated with mammalian cell lysates pre-alkylated with excess iodoacetamide (FIG. 1b) in 6 M urea/phosphate buffered saline (PBS), and separated by non-reducing SDS-PAGE for transfer to nitrocellulose and streptavidin detection. […]
Cells and lysates were protected from light and kept on ice throughout the labeling protocol, except when noted. […] Lysate protein concentrations were quantified using the Bio-Rad DC assay, and diluted 3 mg/mL in 6 M urea/PBS. […] For in-gel fluorescence analysis, samples were loaded without boiling using non-reducing SDS-PAGE loading buffer for SDS-PAGE separation. […] In-gel fluorescence and streptavidin blots were analyzed using a GE typhoon scanner at appropriate wavelengths (488/526 for fluorescein and 633/670 for Cy5-Streptavidin).

Question: For O=C(CCCC[C@@H]1SC[C@@H]2NC(=O)N[C@@H]21)NCCS(=O)O [biotin-SO2H, 2-(5-((3aS,4S,6aR)-2-oxohexahydro-1H-thieno[3,4-d]imidazol-4-yl)pentanamido)ethanesulfinic Acid], which “proteins identified with SILAC ratios >5 (biotin-SO2H/biotin-SO3H)” value [1] is on record?
Answer: The value was 992 proteins.

Question: And the “labeling of mammalian proteins” value [2]?
Answer: Its value is “labels distinct mammalian proteins”.
